Patent US20260219259A1, “METHOD FOR QUANTIFYING INSULIN SECRETION CAPACITY IN HUMAN CELL” (JUNTENDO EDUCATIONAL FOUNDATION, priority 2023, published 2026)

Test system: Huh7 cells
Assay: Insulin production in Huh7 cells expressing Ngn3, Mafa and Pdx1, insulin quantified using HISCL HI-1000
Assay type: cell-based, human
Details: concentration of from 1 to 30 nM; FIG. 8
Protocol: The recombinant SW872 cells that express 3 genes Ngn3, Mafa, and Pdx1 used here were expanded by long-term culture, and the resulting cells were subjected to the same experiment as above. […] Accordingly, a liver-derived cell line Huh7 was infected with Sendai virus vectors (TOKIWA-Bio Inc.) that express 3 genes Ngn3, Mafa, and Pdx1, cultured in a differentiation medium for β cells for 24 hours, and then transfected with expression plasmids of human KLF9 gene and human UCN3 gene using Lipofectamine 3000, and the amount of insulin produced was measured 5 days later. The expression plasmids of human KLF9 gene and human UCN3 gene were prepared by PCR and In-Fusion ligation reaction in the same manner as the method described in Example 3(1) using primers shown in SEQ ID NOs: 65 and 66 and SEQ ID NOS: 69 and 70. pEBMulti-Hyg was used as a negative control, and pEBMulti-hIns was used as a positive control. […] Insulin was quantified using HISCL HI-1000 (Sysmex Corp.). […]
Human SW872 cells that produce hIns-HiBiT5 were infected with Sendai virus vectors that express 3 genes Ngn3, Mafa, and Pdx1 in the same manner as in Example 4, and cultured in a differentiation medium for β cells for 24 hours. […] The method for quantifying insulin was performed in the same manner as in Example 4. […]

Compound: CCCC(CCC)C(=O)O [valproic acid]
- insulin production from the Huh7 cells: promoted insulin production
